From article PMC8277129, “Bioconcentration of Several Series of Cationic Surfactants in Rainbow Trout” (Environmental Science & Technology, 2021)

Legend:
[1] = tested on: juvenile rainbow trout (Oncorhynchus mykiss); assay: Bioconcentration (BCF) experiment based on OECD 305, aqueous exposure to surfactant mixtures; assay type: in vivo
Description: Juvenile rainbow trout were purchased from EM lax in Västervik, Sweden, and held in the aquaria facility for one month prior to starting the experiment on August 28, 2018. Ethical approval for the experiments was obtained from Stockholm’s djurförsöksetiska nämnd (decision 9967–2017). The experiment was conducted in six 350 L fiberglass aquaria with a water renewal rate of 1.5 L min^–1 corresponding to a turnover time of […]. The water temperature and the air temperature in the aquaria room were 10 °C. The lighting was dim and programmed on a 12 h light/12 h dark cycle.
Three BCF experiments were conducted, one each for MIX1 and MIX2 at pH ∼7.6 (denoted MIX1 and MIX2 in the following), and one for MIX1 at pH ∼6.2 (MIX1pH). Each experiment consisted of a 14 d exposure phase and a 28 d depuration phase. There were also two control aquaria where unexposed fish were kept, one at pH 7.6 and one at pH 6.2. For the pH 6.2 aquaria, a 20% v:v formic acid solution was pumped into a premixing basin where it was mixed with the inflowing water before entering the aquarium. pH sensors monitored pH in the premixing basin and the aquarium. The pH for the MIX1 and MIX2 experiments was governed by the pH of the water supply. Water samples were collected at 8 time points during each experiment for the determination of pH and alkalinity. Water samples were collected daily during the exposure phase for determination of total organic carbon (TOC), which was measured with NDIR detection after acidification, purging and high-temperature catalytic combustion (Shimadzu TOC-L).
For the exposure phase, a methanol solution of the test chemical mixture was infused continuously at 4.0 μL min^–1 into the water inflow of the aquarium using a syringe pump. The target concentrations of the chemicals in water ranged from 2.5 to 100 μg L^–1 (Table 1). They were selected to be as low as possible to minimize the risk of toxic effects while still being high enough to enable collection of high-quality data, building on the results of the tissue distribution experiment.[32] The syringe pump was started in an aquarium containing no fish. After 16 h to allow the concentrations to stabilize, ∼80 rainbow trout were transferred to the aquarium. Over the following 14 d water samples were collected and fish were sacrificed according to the schedule in Table S5. The remaining fish were then transferred to a second aquarium that received water without chemical addition. Over the following 28 d further water samples were collected and fish were sacrificed (Table S5).
At each fish sampling, 4–6 fish were sacrificed. Fish were also sampled periodically from the control aquaria. Following stunning and severance of the spinal cord, the fish were placed in a polyethylene bag, weighed, and immediately frozen at −20 °C. The median fish weight at sacrifice was 10.94 g, with a 25th and 75th percentile of 8.43 and 13.58 g, respectively.
Three fish from each time point were prioritized for analysis based on proximity to the median fish weight. Each fish was semithawed, cut into 3–4 pieces, and homogenized with an Ultra-Turrax device. 150 mg of the homogenate was transferred to a preweighed 13 mL polypropylene tube, centrifuged to a pellet, and weighed. 50 μL of methanol was added and the prepared aliquot was frozen. For extraction internal standard solution (isotope labeled standards of Q10 (D21), Q14 (D29), and P16 (D33)), 3 mL of methanol and 3 steel balls (3.2 mm diameter) were added to the prepared aliquot. This mixture was mixed in a bullet blender for 1 min, and then placed in an ultrasound bath at 50 °C for 60 min. Following centrifugation, the supernatant was decanted and the extraction was repeated. The extracts were combined and a portion corresponding to 25–50 mg homogenate was cleaned up on a weak cationic exchange SPE column (WCX, 60 mg) as described elsewhere.[32] […]

gills of rainbow trout = assay: Mechanistic one-box mass balance model of gill uptake and elimination; details: pH 7.6 (MIX1, MIX2)
Description: To gain more mechanistic insight into the results, we formulated a simple one-box mass balance model of chemical bioconcentration in fish that considered diffusive uptake and elimination across the gills as well as biotransformation.[33] The flow of water across the gills and the flow of blood through the gills were modeled as perfusion limited resistances that constrain gill uptake and elimination. […] Consequently, these resistances are unknowns. Ion trapping effects caused by differences in pH between water at the gill surface and blood in the gills are considered, drawing on previous work on the uptake and elimination of ionizable organic chemicals across the gills of rainbow trout.[22],[23] Partitioning of the chemical from the dissolved phase into blood and into whole fish was calculated as the product of the membrane lipid–water distribution ratio (DMLW,T, including partitioning of both the neutral and the charged forms) and the fraction of membrane lipid in blood and whole fish. A detailed description of the model is provided in the SI (Text S3).
The contribution of the water perfusion and blood perfusion resistances were compared with the overall resistance for transport across the gills from water to blood (RW→B), which was calculated from the measured kU according to equation S4.3. […] For all of the other chemicals the blood resistance is insignificant compared to the overall resistance.
The rate constant for elimination across the gills, k2, can be defined as follows: [drawing 1] 1 where αB and αW are the neutral fractions of the chemical in the blood and in the water at the gill surface, respectively, and DFW is the fish-water distribution ratio of the chemical at the pH of blood (8.1) (see Text S3). Using the measured kU and the values of αW, αB, and DFW estimated for the model, k2 was calculated (Table 2).

[2] = Membrane-water partition coefficient of the charged form (DMLW,C); assay type: physicochemical; details: extrapolated from Timmer and Droge (2017)
Description: Table S3: Test chemical properties
Abbr. pKa$ Log DOC§ Log DMLW,C# SMILES
$ pKa values derived/reported for different alkylamine type analogues. The selected value is expected to be independent of chain length for all longer chain homologues, using a weighted value obtained from the different sources with more focus on experimental data:
Algorithm / simulated data Experimental reference data (25 °C)
Chem ACD/ COSMO- selected
(https://echa.europa.eu/registration-dossier/-

[3] = Estimated neutral fraction in water at the fish gill surface; details: pH 7.6 experiments; estimated pKa of 10
Description: The BCF was markedly lower for the QACs compared to tertiary amines with the same chain length: a factor >670 for Q10 compared to T10, and a factor 160 for Q14 compared to T14 (Figure 1, upper panel). The prominent structural difference between the QACs and the analogous tertiary amines is that the former are permanently charged, while the latter exist in both a charged (protonated) and a neutral form.
Text S5: Estimation of pH at the gill surface
The pH at the surface of the gills was calculated using the following system of 5 equations:
alk = 2 × [CO2 ― ] + [HCO ― ] (3)
DIC = [H CO ] + [HCO ― ] + [CO2 ― ] (4) where alk is alkalinity and DIC is total dissolved inorganic carbon. The dissociation constants K1 and K2 were estimated from water temperature according to equations 9.23 and 9.24 in http://www-naweb.iaea.org/napc/ih/documents/global_cycle/vol%20I/cht_i_09.pdf The measured pH and alkalinity in bulk water were used to solve for [H+], [HCO3-], [CO32-], [H2CO3] and DIC. For the water in the gill lamella, the carbon added to the water via respiration (0.0002 mol L-1 based on estimated oxygen demand and gill ventilation rate for a 10 g fish at 10 °C (Arnot et al. 2008, Armitage et al. 2013)) was added to DIC, and using this new DIC and the alkalinity the 5 equations were resolved for [H+], [HCO3-], [CO32-], [H2CO3] and pH. […]

[4] = set-up: method as in Perrin 1965, SRC, REACH, Perrin 1972, Hall 1957; details: selected per amine type, weighted from simulated and experimental analogue data; ref Perrin 1965, SRC, REACH, Perrin 1972, Hall 1957; cited from earlier work
[5] = pH 7.6 (MIX1, MIX2), whole fish

CCCCCCCCCCCCCCN(C)C [T14, N,N-dimethyltetradecylamine]
factor by which kU is higher than for Q14 ([1]; pH 7.6): 260 | uptake rate constant (kU) ([1]; pH 7.6 (MIX1, MIX2), 14 d exposure, 28 d depuration, whole fish, 10 °C): 27 L kg^–1 h^–1 | BCF (kU/kT) [1, 5]: 8100 L kg^–1 | measured total elimination rate constant (kT) [1, 5]: 0.0034 h^–1 | k2/kT (gills of rainbow trout): 1.2 | predicted gill elimination rate constant eq 1 (k2) (gills of rainbow trout; from measured kU and modeled αW, αB, DFW): 0.004 h^–1 | Log DMLW,C (membrane-water partition coefficient of the charged form) [2]: 6.46 | neutral fraction in the water at the fish gill surface [3]: approximately 0.002 | pKa used (selected value) [4]: C14N(CH3)2 (10.0)
